# Experimental data as given in ChEMBL document CHEMBL3352794, “Identification of potent inhibitors of the chicken soluble epoxide hydrolase” (Bioorg Med Chem Lett, 2015).
# Legend:
# [1] = Inhibition of recombinant purified chicken soluble epoxide hydrolase using fluorescent PHOME as substrate; set-up: species or system Gallus gallus
# [2] = Stability in human liver microsomes assessed as compound remaining at 1 uM after 30 mins by mass spectrometry
# [3] = Stability in chicken liver microsomes assessed as compound remaining at 1 uM after 30 mins by mass spectrometry
# [4] = Stability in chicken liver microsomes assessed as compound remaining at 1 uM after 30 mins by mass spectrometry in presence of NADPH
# [5] = Stability in human liver microsomes assessed as compound remaining at 1 uM after 30 mins by mass spectrometry in presence of NADPH
# [6] = Solubility of the compound in 0.1 M sodium phosphate buffer at pH 7.4 containing 1% DMSO by turbidity method; details: 0.1 M sodium phosphate buffer with 1% DMSO
# [7] = Inhibition of recombinant purified chicken soluble epoxide hydrolase by FRET-based competitive displacement assay in presence of ACPU; set-up: species or system Gallus gallus
Compound,IC50 [1],further results
CC(=O)N1CCN(CCCCOc2cccc(NC(=O)NC34CC5CC(CC(C5)C3)C4)c2)CC1,4 nM,
Cc1cc(C)c(CN2CCC(C(=O)NC3CCCCCC3)CC2)c(C)c1,13 nM,
O=C(Nc1ccc(OCCOCCOCC(F)(F)F)cc1)NC12CC3CC(CC(C3)C1)C2,4.4 nM,
CCCCCOC(=O)C1CCCC(NC(=O)NC23CC4CC(CC(C4)C2)C3)C1 (stereo not given),5.7 nM,
O=C(O)CCCCCCCCCCCNC(=O)NC12CC3CC(CC(C3)C1)C2,13 nM,"remaining at 0.5 h, 1 µM [2]: 98%; remaining at 0.5 h, 1 µM [3]: 106%; remaining at 0.5 h, 1 µM [4]: 70%; remaining at 0.5 h, 1 µM [5]: 69%; solubility kinetic [6]: 37.5 µM"
CNC(=O)c1cc(O[C@H]2CC[C@H](NC(=O)Nc3ccc(Cl)c(C(F)(F)F)c3)CC2)ccn1,11 nM,
CNC(=O)c1ccc(O[C@H]2CC[C@H](NC(=O)Nc3ccc(Cl)c(C(F)(F)F)c3)CC2)cn1,5.1 nM,
COc1ccc(O[C@H]2CC[C@@H](NC(=O)NC34CC5CC(CC(C5)C3)C4)CC2)cc1,,"remaining at 0.5 h, 1 µM [2]: 98%; remaining at 0.5 h, 1 µM [3]: 69%; remaining at 0.5 h, 1 µM [4]: 2.1%; remaining at 0.5 h, 1 µM [5]: 57%"
CCCCCOC(=O)C1CCC(NC(=O)NC23CC4CC(CC(C4)C2)C3)CC1 (stereo not given),5.2 nM,
CC(C)=CCO[C@H]1CC[C@@H](NC(=O)NC23CC4CC(CC(C4)C2)C3)CC1,5.3 nM,
O=C(NC1CCCCCCC1)N[C@H]1CC[C@@H](Oc2ccc(F)cc2)CC1,5.1 nM,
O=C(Nc1ccc(C(F)(F)F)cc1)N[C@H]1CC[C@H](OCc2c(F)cccc2F)CC1,4.4 nM,
CCOC(=O)C(C)OCCCCCCCCNC(=O)NC12CC3CC(CC(C3)C1)C2 (stereo not given),4.4 nM,
CC(C)(C)OC(=O)N1CCC(NC(=O)NC23CC4CC(CC(C4)C2)C3)CC1,7.5 nM,
CCN(CC)C(=O)c1cc(O[C@H]2CC[C@H](NC(=O)Nc3ccc(Cl)c(C(F)(F)F)c3)CC2)ccn1,9.6 nM,
NS(=O)(=O)c1ccc(-n2nc(CCCNC(=O)Nc3ccc(C(F)(F)F)cc3)cc2-c2ccc(F)cc2)cc1,5.7 nM,
O=C(NCCCCOc1ccc(F)cc1)NC12CC3CC(CC(C3)C1)C2,9.6 nM,

# Continued, in another order:
IC50 [1],Compound,further results
2.3 nM,CC(=O)N1CCN(CCCCOc2ccc(NC(=O)NC34CC5CC(CC(C5)C3)C4)cc2)CC1,
3.3 nM,NS(=O)(=O)c1ccc(-n2nc(CCCNC(=O)NC3CCCCCC3)cc2-c2ccccc2)cc1,
1.7 nM,C=CCO[C@H]1CC[C@@H](NC(=O)NC23CC4CC(CC(C4)C2)C3)CC1,
2.7 nM,O=C(NC1CCCCCC1)N[C@H]1CC[C@@H](Oc2ccc(F)cc2)CC1,
3 nM,Cc1ccc(S(=O)(=O)N2CCC(C(=O)NCC3CCCCC3)CC2)c(C)c1,
2.4 nM,CNC(=O)c1ccc(O[C@H]2CC[C@H](NC(=O)NC34CC5CC(CC(C5)C3)C4)CC2)cc1,"Ki [7]: < 0.02 nM; remaining at 0.5 h, 1 µM [2]: 101%; remaining at 0.5 h, 1 µM [3]: 96%; remaining at 0.5 h, 1 µM [4]: 96%; remaining at 0.5 h, 1 µM [5]: 94%; solubility kinetic [6]: 50 µM"
3.5 nM,O=C(CCCCCCCCCCCNC(=O)NC12CC3CC(CC(C3)C1)C2)N[C@@H]1O[C@H](CO)[C@H](O)[C@@H](O)[C@H]1O,
3.5 nM,O=C(NCCCc1ccccc1)N[C@H]1CC[C@@H](Oc2ccc(F)cc2)CC1,
2 nM,O=C(Nc1cccc(Cl)c1)N[C@H]1CC[C@H](OCc2c(F)cccc2F)CC1,
2.4 nM,O=C(Nc1cccc(Br)c1)N[C@H]1CC[C@H](OCc2c(F)cccc2F)CC1,
1.9 nM,O=C(NCCCc1ccccc1)N[C@H]1CC[C@H](OCc2c(F)cccc2F)CC1,
1.4 nM,COC(=O)c1ccc(C(=O)N2CCC(NC(=O)Nc3ccc(OC(F)(F)F)cc3)CC2)cc1,"remaining at 0.5 h, 1 µM [2]: 1.2%; remaining at 0.5 h, 1 µM [3]: 105%; remaining at 0.5 h, 1 µM [4]: 94%; remaining at 0.5 h, 1 µM [5]: 2.7%; solubility kinetic [6]: 75 µM"
3.1 nM,O=C(NC12CC3CC(CC(C3)C1)C2)N[C@H]1CC[C@H](OCc2cc(F)cc(F)c2)CC1,
2.1 nM,NC(=O)CCCCCCCCCCCNC(=O)NC12CC3CC(CC(C3)C1)C2,
1.2 nM,O=C(NC12CC3CC(CC(C3)C1)C2)N[C@H]1CC[C@H](Oc2ccc(CO)cc2)CC1,"Ki [7]: < 0.02 nM; remaining at 0.5 h, 1 µM [2]: 91%; remaining at 0.5 h, 1 µM [3]: 73%; remaining at 0.5 h, 1 µM [4]: 24%; remaining at 0.5 h, 1 µM [5]: 53%; solubility kinetic [6]: > 100 µM"
3.6 nM,N#Cc1ccc(O[C@H]2CC[C@H](NC(=O)Nc3ccc(Cl)c(C(F)(F)F)c3)CC2)cc1,
2.1 nM,CNC(=O)c1ccc(O[C@H]2CC[C@@H](NC(=O)Nc3ccc(OC(F)(F)F)cc3)CC2)cc1,"remaining at 0.5 h, 1 µM [2]: 101%; remaining at 0.5 h, 1 µM [3]: 119%; remaining at 0.5 h, 1 µM [4]: 89%; remaining at 0.5 h, 1 µM [5]: 5.4%; solubility kinetic [6]: 10 µM"
1.2 nM,O=C(NC12CC3CC(CC(C3)C1)C2)N[C@H]1CC[C@@H](Oc2ccc(F)cc2)CC1,
